Reference: PubChem BioAssay (NCI)
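Test compounds were applied to cells in 96-well plates for 48 hours at 5 doses. The concentration for full growth arrest is given as TGI.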

Tests used:
Assay in all cases: growth of human tumour cells (NCI), 48 h
HOP-92 NSCLC = tested on: HOP-92 NSCLC
LOX IMVI melanoma = tested on: LOX IMVI melanoma
BT-549 breast = tested on: BT-549 breast
HS 578T breast = tested on: HS 578T breast
MCF7 breast = tested on: MCF7 breast
M14 melanoma = tested on: M14 melanoma
MOLT-4 leukemia = tested on: MOLT-4 leukemia
HOP-62 NSCLC = tested on: HOP-62 NSCLC
NCI-H460 lung = tested on: NCI-H460 lung
MDA-MB-435 = tested on: MDA-MB-435
OVCAR-4 ovarian = tested on: OVCAR-4 ovarian
EKVX NSCLC = tested on: EKVX NSCLC
CCRF-CEM leukemia = tested on: CCRF-CEM leukemia
SR leukemia = tested on: SR leukemia
UO-31 renal = tested on: UO-31 renal
NCI-H522 lung = tested on: NCI-H522 lung
HT29 colon = tested on: HT29 colon
MDA-MB-231 breast = tested on: MDA-MB-231 breast
HCT-15 colon = tested on: HCT-15 colon
SK-MEL-5 melanoma = tested on: SK-MEL-5 melanoma
T-47D breast = tested on: T-47D breast
SN12C renal = tested on: SN12C renal
ACHN renal = tested on: ACHN renal
OVCAR-8 ovarian = tested on: OVCAR-8 ovarian
CAKI-1 renal = tested on: CAKI-1 renal
786-0 renal = tested on: 786-0 renal
HCC-2998 colon = tested on: HCC-2998 colon
K-562 leukemia = tested on: K-562 leukemia
TK-10 renal = tested on: TK-10 renal
UACC-257 melanoma = tested on: UACC-257 melanoma
UACC-62 melanoma = tested on: UACC-62 melanoma
MALME-3M melanoma = tested on: MALME-3M melanoma
U251 CNS = tested on: U251 CNS
SK-MEL-2 melanoma = tested on: SK-MEL-2 melanoma
OVCAR-3 ovarian = tested on: OVCAR-3 ovarian
SK-OV-3 ovarian = tested on: SK-OV-3 ovarian
COLO 205 colon = tested on: COLO 205 colon
NCI-H23 lung = tested on: NCI-H23 lung
SW-620 colon = tested on: SW-620 colon
A498 renal = tested on: A498 renal
SF-268 CNS = tested on: SF-268 CNS
MDA-N = tested on: MDA-N
A549 NSCLC = tested on: A549 NSCLC
HCT-116 colon = tested on: HCT-116 colon
SF-295 CNS = tested on: SF-295 CNS
IGROV1 ovarian = tested on: IGROV1 ovarian
OVCAR-5 ovarian = tested on: OVCAR-5 ovarian
KM12 colon = tested on: KM12 colon
DU-145 prostate = tested on: DU-145 prostate
NCI/ADR-RES ovarian = tested on: NCI/ADR-RES ovarian
SF-539 CNS = tested on: SF-539 CNS
SK-MEL-28 melanoma = tested on: SK-MEL-28 melanoma
NCI-H226 lung = tested on: NCI-H226 lung
SNB-19 CNS = tested on: SNB-19 CNS
PC-3 prostate = tested on: PC-3 prostate
RXF 393 renal = tested on: RXF 393 renal
SNB-75 CNS = tested on: SNB-75 CNS
RPMI-8226 leukemia = tested on: RPMI-8226 leukemia
HL-60(TB) leukemia = tested on: HL-60(TB) leukemia

Measured: TGI

NC1CC(N)c2c(Br)sc(Br)c21 (stereo not given)
> 100 µM: HOP-92 NSCLC | LOX IMVI melanoma | BT-549 breast | HS 578T breast | MCF7 breast | M14 melanoma | MOLT-4 leukemia | HOP-62 NSCLC | NCI-H460 lung | MDA-MB-435 | OVCAR-4 ovarian | EKVX NSCLC | CCRF-CEM leukemia | SR leukemia | UO-31 renal | NCI-H522 lung | HT29 colon | MDA-MB-231 breast | HCT-15 colon | SK-MEL-5 melanoma | T-47D breast | SN12C renal | ACHN renal | OVCAR-8 ovarian | CAKI-1 renal | 786-0 renal | HCC-2998 colon | K-562 leukemia | TK-10 renal | UACC-257 melanoma | UACC-62 melanoma | MALME-3M melanoma | U251 CNS | SK-MEL-2 melanoma | OVCAR-3 ovarian | SK-OV-3 ovarian | COLO 205 colon | NCI-H23 lung | SW-620 colon | A498 renal | SF-268 CNS | MDA-N | A549 NSCLC | HCT-116 colon | SF-295 CNS | IGROV1 ovarian | OVCAR-5 ovarian | KM12 colon | DU-145 prostate | NCI/ADR-RES ovarian | SF-539 CNS | SK-MEL-28 melanoma | NCI-H226 lung

CC1(C)C2CCC(N)(C2)C1N (stereo not given)
> 100 µM: HOP-92 NSCLC | LOX IMVI melanoma | BT-549 breast | MCF7 breast | M14 melanoma | MOLT-4 leukemia | HOP-62 NSCLC | NCI-H460 lung | MDA-MB-435 | OVCAR-4 ovarian | EKVX NSCLC | CCRF-CEM leukemia | SR leukemia | UO-31 renal | SNB-19 CNS | HCT-15 colon | SK-MEL-5 melanoma | T-47D breast | SN12C renal | ACHN renal | OVCAR-8 ovarian | CAKI-1 renal | 786-0 renal | HCC-2998 colon | K-562 leukemia | TK-10 renal | PC-3 prostate | UACC-257 melanoma | UACC-62 melanoma | U251 CNS | SK-MEL-2 melanoma | OVCAR-3 ovarian | SK-OV-3 ovarian | COLO 205 colon | RXF 393 renal | NCI-H23 lung | SW-620 colon | A498 renal | MDA-N | A549 NSCLC | HCT-116 colon | SF-295 CNS | IGROV1 ovarian | OVCAR-5 ovarian | KM12 colon | DU-145 prostate | NCI/ADR-RES ovarian | SNB-75 CNS | SK-MEL-28 melanoma | RPMI-8226 leukemia | NCI-H226 lung | HL-60(TB) leukemia
